Data taken from patent publication US6818219B1, “Reagent for detecting and monitoring viral infections” (Institut Pasteur de Lille, priority 1997, dated 2004).

Test system: anti-VCAp18 antibodies of EBV-positive sera
Test: Measurement of the binding affinity to the antibody (method of FRIGUET, ELISA inhibition by soluble VCAp18/SEQ ID No. 2)
Parameters: species or system human
Details: increasing concentrations of soluble peptide
Procedure: The specificity of the binding of the positive sera to the different mixotopes in solid phase is evaluated by the absorption of the antibodies by the native antigen VCAp18/SEQ ID No. 2 in solution, using the method of B. FRIGUET et al. (J. Immunol. Methods, 1985, 77, 305-319).
This method is based on the measurement of the free antibody concentration by an indirect ELISA method when the antigen VCAp18/SEQ ID No. 2 and the antibodies are in equilibrium in solution.
The antigen VCAp18/SEQ ID No. 2, at different concentrations (10^−10 M to 2×10^−6 M), is first incubated in solution (PBS-T buffer+2% BSA) with an EBV-positive serum, at a constant concentration (1/50) until the equilibrium state is reached. […]
After washing with PBS-T buffer, the bound immunoglobulins are detected by addition of peroxidase-coupled goat antibodies anti-human IgG-A-Ms.
This method gives the displacement curves for the A/Ao bond relative to log(ao). A precise estimation of the mean affinity of the serum containing the anti-VCAp18 antibodies is given by the equation Ao/(Ao−A)=1/ν=1+Kd/ao, in which ao is the total soluble antigen concentration, A and Ao are the absorbance values at 492 nm with or without blocking antigen, respectively, and ν is the bound antibody fraction, if the different conditions set out in FRIGUET et al. are satisfied.

Sequence: CAVDTGSGGGGQPHDTAPRGARKKQ [VCAp18/SEQ ID No. 2]
- inhibition of the binding of the human sera to the 3 mixotopes in solid phase: specifically and strongly inhibited
